# Test results as given in ChEMBL document CHEMBL1140509, “Rynaxypyr: a new insecticidal anthranilic diamide that acts as a potent and selective ryanodine receptor activator” (Bioorg Med Chem Lett, 2007).
# Several values for one entry are separate records, joined by “and”; a condition that tells them apart may be missing. Equal values may be shown once. Activity calls are given as the source filed them. The rule behind the calls is not given here.
# Legend:
# Spodoptera frugiperda = test: Insecticidal activity against Spodoptera frugiperda; assay type: functional
# Plutella xylostella = test: Insecticidal activity against Plutella xylostella; assay type: functional
# Heliothis virescens = test: Insecticidal activity against Heliothis virescens; assay type: functional
# [1] = Activation of Heliothis virescens recombinant ryanodine receptor expressed in Sf9 cells assessed as induction of calcium mobilization
# Ryanodine receptor = Ryanodine receptor (Drosophila melanogaster, UniProt Q24498); test: Activation of Drosophila melanogaster ryanodine receptor in Sf9 cells assessed as induction of calcium mobilization; assay type: cell-based
# [2] = Activation of ryanodine receptor in mouse C2C12 cells assessed as induction of calcium mobilization; assay type: cell-based
# [3] = Activation of ryanodine receptor in rat PC12 cells assessed as induction of calcium mobilization; assay type: cell-based; conditions: PC-12
# PC-12 = test: Activation of ryanodine receptor in rat PC12 cells assessed as induction of calcium mobilization at 100 uM; assay type: cell-based
# Ryanodine receptor 2 [4] = molecular target: T1, Ryanodine receptor 2 (Homo sapiens, UniProt Q92736); test: Activation of ryanodine receptor in human IMR32 cells assessed as induction of calcium mobilization; assay type: cell-based, IMR-32
# T1 sequence (Q92736 whole entry): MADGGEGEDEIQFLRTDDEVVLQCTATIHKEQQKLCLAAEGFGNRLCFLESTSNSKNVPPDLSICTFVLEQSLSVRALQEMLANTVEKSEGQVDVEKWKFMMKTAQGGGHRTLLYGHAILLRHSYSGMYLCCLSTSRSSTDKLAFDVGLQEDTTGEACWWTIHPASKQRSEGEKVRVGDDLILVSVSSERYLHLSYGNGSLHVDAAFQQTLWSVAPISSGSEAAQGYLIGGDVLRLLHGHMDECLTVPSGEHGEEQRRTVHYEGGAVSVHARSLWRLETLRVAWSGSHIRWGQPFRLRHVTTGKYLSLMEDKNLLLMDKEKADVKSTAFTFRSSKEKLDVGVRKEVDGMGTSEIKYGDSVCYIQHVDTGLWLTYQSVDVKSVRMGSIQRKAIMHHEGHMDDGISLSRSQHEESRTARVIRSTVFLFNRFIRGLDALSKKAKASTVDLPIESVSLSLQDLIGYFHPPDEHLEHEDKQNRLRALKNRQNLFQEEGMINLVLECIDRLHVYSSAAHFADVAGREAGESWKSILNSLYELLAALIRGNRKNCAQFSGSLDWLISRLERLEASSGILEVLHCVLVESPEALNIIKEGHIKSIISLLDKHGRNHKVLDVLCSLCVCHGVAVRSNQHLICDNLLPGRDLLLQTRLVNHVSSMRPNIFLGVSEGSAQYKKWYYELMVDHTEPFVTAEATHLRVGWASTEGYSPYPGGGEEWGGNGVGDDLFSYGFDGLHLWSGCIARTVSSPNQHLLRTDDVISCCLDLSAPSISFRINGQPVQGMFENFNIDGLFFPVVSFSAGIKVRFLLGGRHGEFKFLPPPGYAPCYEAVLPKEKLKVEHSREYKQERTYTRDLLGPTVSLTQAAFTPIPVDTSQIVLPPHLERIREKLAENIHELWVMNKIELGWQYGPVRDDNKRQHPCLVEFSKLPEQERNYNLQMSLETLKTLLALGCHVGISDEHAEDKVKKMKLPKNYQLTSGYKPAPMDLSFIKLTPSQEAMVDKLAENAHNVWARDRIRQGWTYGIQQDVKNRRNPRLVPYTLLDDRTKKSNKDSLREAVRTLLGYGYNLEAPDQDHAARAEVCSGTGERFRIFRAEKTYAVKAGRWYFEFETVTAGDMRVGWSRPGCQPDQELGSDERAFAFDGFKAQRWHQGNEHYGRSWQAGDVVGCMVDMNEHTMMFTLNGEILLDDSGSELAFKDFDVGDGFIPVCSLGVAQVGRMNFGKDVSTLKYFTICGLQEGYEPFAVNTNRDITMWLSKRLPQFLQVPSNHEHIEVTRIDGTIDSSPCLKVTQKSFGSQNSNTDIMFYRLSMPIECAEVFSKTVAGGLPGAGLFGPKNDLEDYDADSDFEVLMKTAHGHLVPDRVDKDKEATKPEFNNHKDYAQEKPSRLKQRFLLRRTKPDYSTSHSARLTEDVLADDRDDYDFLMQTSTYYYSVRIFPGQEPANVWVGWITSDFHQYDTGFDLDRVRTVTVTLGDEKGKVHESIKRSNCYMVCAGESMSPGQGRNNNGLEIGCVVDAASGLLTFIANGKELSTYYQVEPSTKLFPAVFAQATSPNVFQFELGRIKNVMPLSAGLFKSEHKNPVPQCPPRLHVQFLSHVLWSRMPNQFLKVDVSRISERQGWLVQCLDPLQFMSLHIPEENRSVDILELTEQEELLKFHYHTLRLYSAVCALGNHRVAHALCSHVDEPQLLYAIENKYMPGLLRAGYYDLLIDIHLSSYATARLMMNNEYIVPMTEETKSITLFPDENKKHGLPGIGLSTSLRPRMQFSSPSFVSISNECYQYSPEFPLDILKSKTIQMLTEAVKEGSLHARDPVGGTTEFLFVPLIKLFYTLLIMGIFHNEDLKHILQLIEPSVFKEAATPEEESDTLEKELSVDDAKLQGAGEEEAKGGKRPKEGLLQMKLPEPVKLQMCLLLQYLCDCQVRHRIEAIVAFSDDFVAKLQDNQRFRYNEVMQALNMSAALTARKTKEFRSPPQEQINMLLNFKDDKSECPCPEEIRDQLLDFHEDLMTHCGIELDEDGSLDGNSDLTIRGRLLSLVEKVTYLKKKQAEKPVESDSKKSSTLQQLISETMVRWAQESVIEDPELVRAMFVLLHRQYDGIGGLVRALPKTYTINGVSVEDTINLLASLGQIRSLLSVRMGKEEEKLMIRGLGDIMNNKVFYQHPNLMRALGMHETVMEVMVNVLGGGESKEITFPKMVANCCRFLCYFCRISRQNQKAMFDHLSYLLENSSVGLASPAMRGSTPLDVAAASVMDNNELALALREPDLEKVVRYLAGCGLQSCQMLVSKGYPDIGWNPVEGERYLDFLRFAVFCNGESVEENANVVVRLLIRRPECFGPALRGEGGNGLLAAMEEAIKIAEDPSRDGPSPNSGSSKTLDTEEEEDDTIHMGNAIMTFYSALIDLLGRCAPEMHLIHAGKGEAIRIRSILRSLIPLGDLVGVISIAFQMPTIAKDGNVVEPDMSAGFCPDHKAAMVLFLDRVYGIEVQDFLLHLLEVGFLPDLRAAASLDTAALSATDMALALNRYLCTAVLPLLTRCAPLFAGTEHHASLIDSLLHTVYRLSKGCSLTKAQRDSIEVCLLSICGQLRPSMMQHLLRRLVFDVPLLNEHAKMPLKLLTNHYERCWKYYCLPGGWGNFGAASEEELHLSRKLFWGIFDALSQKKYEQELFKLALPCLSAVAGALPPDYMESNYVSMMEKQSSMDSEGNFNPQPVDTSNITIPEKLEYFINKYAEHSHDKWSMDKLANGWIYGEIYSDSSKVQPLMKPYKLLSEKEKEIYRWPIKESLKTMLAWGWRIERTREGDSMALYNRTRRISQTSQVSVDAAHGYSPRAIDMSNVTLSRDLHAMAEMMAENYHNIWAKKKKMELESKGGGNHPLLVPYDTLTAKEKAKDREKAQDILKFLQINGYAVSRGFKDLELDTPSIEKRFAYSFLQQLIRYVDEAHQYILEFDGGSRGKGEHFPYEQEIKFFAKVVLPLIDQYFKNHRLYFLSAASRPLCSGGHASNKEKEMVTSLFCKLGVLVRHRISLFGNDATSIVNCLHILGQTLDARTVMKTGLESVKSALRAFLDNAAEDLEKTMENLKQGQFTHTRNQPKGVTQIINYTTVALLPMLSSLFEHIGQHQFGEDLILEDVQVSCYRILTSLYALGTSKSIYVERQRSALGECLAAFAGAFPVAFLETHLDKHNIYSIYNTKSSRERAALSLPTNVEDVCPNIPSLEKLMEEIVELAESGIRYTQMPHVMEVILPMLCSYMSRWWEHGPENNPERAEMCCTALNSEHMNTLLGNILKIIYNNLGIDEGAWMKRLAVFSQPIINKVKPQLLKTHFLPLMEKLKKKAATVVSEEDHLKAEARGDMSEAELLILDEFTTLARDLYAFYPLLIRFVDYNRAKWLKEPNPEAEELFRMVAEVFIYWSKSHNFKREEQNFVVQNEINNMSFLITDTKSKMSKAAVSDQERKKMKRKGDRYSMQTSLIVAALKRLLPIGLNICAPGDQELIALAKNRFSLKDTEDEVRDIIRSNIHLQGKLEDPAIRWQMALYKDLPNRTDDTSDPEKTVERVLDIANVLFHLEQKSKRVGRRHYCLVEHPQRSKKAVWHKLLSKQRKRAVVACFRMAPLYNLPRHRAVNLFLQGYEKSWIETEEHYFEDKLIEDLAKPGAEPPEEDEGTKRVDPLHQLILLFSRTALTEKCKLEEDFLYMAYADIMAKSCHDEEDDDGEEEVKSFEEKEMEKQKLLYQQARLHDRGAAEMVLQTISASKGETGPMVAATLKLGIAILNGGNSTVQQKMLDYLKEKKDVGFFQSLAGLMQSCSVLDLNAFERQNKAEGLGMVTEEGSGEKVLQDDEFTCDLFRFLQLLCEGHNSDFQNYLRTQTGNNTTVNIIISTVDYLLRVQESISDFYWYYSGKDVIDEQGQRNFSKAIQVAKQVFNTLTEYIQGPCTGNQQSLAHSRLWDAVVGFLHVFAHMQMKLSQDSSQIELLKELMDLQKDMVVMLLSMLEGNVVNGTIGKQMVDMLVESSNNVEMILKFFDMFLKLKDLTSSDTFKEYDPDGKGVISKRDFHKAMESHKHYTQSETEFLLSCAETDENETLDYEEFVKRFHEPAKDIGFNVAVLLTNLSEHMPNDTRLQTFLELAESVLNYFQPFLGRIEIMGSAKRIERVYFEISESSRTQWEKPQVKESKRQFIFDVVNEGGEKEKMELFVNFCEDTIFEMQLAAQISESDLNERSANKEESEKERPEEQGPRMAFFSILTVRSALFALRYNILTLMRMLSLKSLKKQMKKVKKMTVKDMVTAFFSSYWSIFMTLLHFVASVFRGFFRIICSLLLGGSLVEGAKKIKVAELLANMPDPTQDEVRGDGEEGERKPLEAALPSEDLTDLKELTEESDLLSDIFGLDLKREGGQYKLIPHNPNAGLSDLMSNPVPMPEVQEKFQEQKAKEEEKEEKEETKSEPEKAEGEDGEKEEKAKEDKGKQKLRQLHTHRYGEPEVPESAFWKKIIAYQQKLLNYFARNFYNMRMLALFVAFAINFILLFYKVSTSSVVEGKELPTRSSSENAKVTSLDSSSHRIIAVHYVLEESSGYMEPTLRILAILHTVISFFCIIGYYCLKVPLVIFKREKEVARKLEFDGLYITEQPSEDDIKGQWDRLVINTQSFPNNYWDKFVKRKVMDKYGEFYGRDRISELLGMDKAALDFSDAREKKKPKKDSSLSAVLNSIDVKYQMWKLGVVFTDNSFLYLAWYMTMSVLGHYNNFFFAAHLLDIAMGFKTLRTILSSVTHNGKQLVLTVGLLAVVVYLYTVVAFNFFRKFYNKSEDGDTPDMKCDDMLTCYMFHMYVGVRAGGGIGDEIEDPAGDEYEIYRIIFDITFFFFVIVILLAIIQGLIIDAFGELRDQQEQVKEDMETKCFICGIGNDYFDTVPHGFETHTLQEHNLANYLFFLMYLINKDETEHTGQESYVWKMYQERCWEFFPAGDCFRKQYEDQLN
# Ryanodine receptor 2 [5] = molecular target: T1, Ryanodine receptor 2; test: Activation of ryanodine receptor in human IMR32 cells assessed as induction of calcium mobilization at 100 uM; assay type: cell-based; conditions: IMR-32
# [6] = Toxicity in po dosed rat; assay type: organism-based; conditions: in vivo
# Rattus norvegicus = test: Toxicity in rat above 1000 mg/kg/day; assay type: organism-based; conditions: in vivo
# Oryctolagus cuniculus = test: Toxicity in rabbit above 1000 mg/kg/day; assay type: organism-based; conditions: in vivo
SMILES,LC50 (Spodoptera frugiperda) [µg/mL],LC50 (Plutella xylostella) [µg/mL],LC50 (Heliothis virescens) [µg/mL],EC50 [1],further results
Cc1cc(Cl)cc(C(=O)NC(C)C)c1NC(=O)c1cc(OCC(F)(F)F)nn1-c1ncccc1Cl,0.03,0.01,0.09,2730 nM,
CNC(=O)c1cc(Cl)cc(C)c1NC(=O)c1cc(OCC(F)(F)F)nn1-c1ncccc1Cl,0.11,0.04,0.24,240 nM,
CNC(=O)c1cc(Cl)cc(C)c1NC(=O)c1cc(Cl)nn1-c1ncccc1Cl,0.03,0.03,0.07,69 nM,
Cc1cc(Br)cc(C(=O)NC(C)C)c1NC(=O)c1cc(C(F)(F)F)nn1-c1ncccc1Cl,0.03,0.01,0.03,1570 nM,
Cc1cc(Cl)cc(C(=O)NC(C)C)c1NC(=O)c1cc(Cl)nn1-c1ncccc1Cl,0.05,0.09,0.05,270 nM,
CNC(=O)c1cc(C(F)(F)F)cc(C)c1NC(=O)c1cc(C(F)(F)F)nn1-c1ncccc1Cl,0.53,0.09,0.66,,
CNC(=O)c1cc(Cl)cc(C)c1NC(=O)c1cc(OC(F)F)nn1-c1ncccc1Cl,0.21,0.38,1.08,60 nM,
Cc1cc(C(F)(F)F)cc(C(=O)NC(C)C)c1NC(=O)c1cc(C(F)(F)F)nn1-c1ncccc1Cl,0.39,0.07,0.11,3700 nM,
CNC(=O)c1cc(Cl)cc(C)c1NC(=O)c1cc(OC)nn1-c1ncccc1Cl,0.68,0.33,2.43,101 nM,
CNC(=O)c1cc(Cl)cc(C)c1NC(=O)c1cc(Br)nn1-c1ncccc1Cl [CHLORANTRANILIPROLE],0.02,0.02,0.04,52 nM and 50 nM,EC50 (Ryanodine receptor): 40 nM; EC50 [2]: 14000 nM; EC50 [3]: > 100000 nM; Activity (PC-12): 20%; EC50 (Ryanodine receptor 2 [4]): > 100000 nM; Activity (Ryanodine receptor 2 [5]): inactive; LD50 [6]: > 5000 mg/kg; Activity (Rattus norvegicus): Non-toxic; Activity (Oryctolagus cuniculus): Non-toxic
CNC(=O)c1cc(Cl)cc(C)c1NC(=O)c1cc(C(F)(F)F)nn1-c1ncccc1Cl,0.02,0.01,0.05,73 nM,
Cc1cc(Cl)cc(C(=O)NC(C)C)c1NC(=O)c1cc(Br)nn1-c1ncccc1Cl,0.04,0.04,0.02,458 nM,
CNC(=O)c1cc(I)cc(C)c1NC(=O)c1cc(C(F)(F)F)nn1-c1ncccc1Cl,0.26,0.1,0.21,205 nM,
CNC(=O)c1cc(I)cc(C)c1NC(=O)c1cc(Br)nn1-c1ncccc1Cl,0.13,0.07,0.16,118 nM,
Cc1cc(Cl)cc(C(=O)NC(C)C)c1NC(=O)c1cc(OC(F)F)nn1-c1ncccc1Cl,0.14,0.1,0.12,511 nM,
Cc1cc(Cl)cc(C(=O)NC(C)C)c1NC(=O)c1cc(C(F)(F)F)nn1-c1ncccc1Cl,0.03,0.01,0.02,1830 nM,
Cn1c(=O)c2c(ncn2C)n(C)c1=O,,,,,Activity (Ryanodine receptor 2 [4]; IMR-32): Dose-dependent effect
COc1cc(C(=O)Nc2c(C)cc(Cl)cc2C(=O)NC(C)C)n(-c2ncccc2Cl)n1,0.3,0.18,1.14,387 nM,
CNC(=O)c1cc(Br)cc(C)c1NC(=O)c1cc(Br)nn1-c1ncccc1Cl,0.18,0.06,0.11,63 nM,
